The structures appear in SMILES notation.

Common to all, as to type: in vivo
The test system of one data set is Galium spurium. Description: Test Example 4: herbicidal effect by application to foliage (diluvial soil, plastic box). To be noted: application to foliage, 320 g/ha. The source says: (§1) 5 Herbicidal ratio of 90% or more (almost completely withered) 4 Herbicidal ratio of 70% or more and less than 90% 3 Herbicidal ratio of 40% or more and less than 70% 2 Herbicidal ratio of 20% or more and less than 40% 1 Herbicidal ratio of 5% or more and less than 20% 0 Herbicidal ratio of 5% or less (almost no effect) [Test Example 4] Herbicidal Effect Test by Application to Foliage Sterilized diluvial soil was placed in a plastic box having a length of 21 cm, a width of 13 cm, and a depth of 7 cm. Each of the seeds of Digitaria ciliaris, Setaria viridis, Echinochloa crus-galli var. crus-galli, Avena fatua, Alopecurus myosuroides, Lolium multiflorum Lam., Apera spica-venti., Abutilon theophrasti, Amaranthus retroflexus, Chenopodium album, Stellaria media, Galium spurium, Veronica persica, Zea mays, Glycine max, Oryza sativa, Triticum aestivum, Beta vulgaris ssp. vulgaris, and Brassica campestris L. was sowed in a spot-like manner and was covered with the soil of about 1.5 cm thick. Thereafter, the plants were grown in the greenhouse of 25° C. to 30° C. After the plants were grown for 14 days, the emulsion agent containing the compound of the present invention prepared in accordance with Formulation Example 2 was diluted with water so as to be a predetermined herbicide amount and the diluted compound was uniformly applied to a stem and leaf part with a small-size spray. Three weeks after the herbicide application, effects on each plant were investigated in accordance with the criteria of Test Example 1. A: Echinochloa oryzicola Vasing., B: Scirpus juncoides, C: Monochoria vaginalis, D: Leptochloa chinensis, E: Cyperus difformis, F: Digitaria ciliaris, G: Setaria viridis, H: Echinochloa crus-galli var. crus-galli, I: Avena fatua, J: Alopecurus myosuroides, K: Lolium multiflorum Lam., L: Apera spica-venti., M: Abutilon theophrasti, N: Amaranthus retroflexus, O: Chenopodium album, P: Stellaria media, Q: Galium spurium, R: Veronica persica, a: transplanted Oryza sativa, b: directly sowed Oryza sativa, c: Zea mays, d: Glycine max, e: Triticum aestivum, f: Beta vulgaris ssp. vulgaris, and g: Brassica campestris L. The application herbicide amount (g/ha) means an amount that a concentration is adjusted so that, when an application amount is converted into per hectare (1 ha), the herbicide is applied by the number of grams (g) of the described value.

The next data set concerns Digitaria ciliaris. Described as above. As to conditions: application to foliage, 320 g/ha.
From the text: as §1

The next data set deals with Setaria viridis. The description is as above. As to conditions: application to foliage, 320 g/ha.
From the text: as §1

Data set [1] relates to Echinochloa crus-galli var. crus-galli. The description is as above. To be noted: application to foliage, 320 g/ha.
From the text: as §1

A further data set concerns Veronica persica. The description is as above. As to conditions: application to foliage, 320 g/ha.
From the text: as §1

Another data set deals with Avena fatua. The description is as above. To be noted: application to foliage, 320 g/ha.
From the text: as §1

A further data set has as its system Abutilon theophrasti. The data set is described as above. To be noted: application to foliage, 320 g/ha.
From the text: as §1

Another data set concerns Chenopodium album. The description is as above. As to conditions: application to foliage, 320 g/ha.
From the text: as §1

The next data set deals with Lolium multiflorum Lam. The data set is described as above. As to conditions: application to foliage, 320 g/ha.
From the text: as §1

Another data set deals with Alopecurus myosuroides. The description is as above. As to conditions: application to foliage, 320 g/ha.
From the text: as §1

The next data set concerns Amaranthus retroflexus. The data set is described as above. To be noted: application to foliage, 320 g/ha.
From the text: as §1

Another data set has as its system Apera spica-venti. The data set is described as above. As to conditions: application to foliage, 320 g/ha.
From the text: as §1

The next data set deals with Stellaria media. Described as above. As to conditions: application to foliage, 320 g/ha.
From the text: as §1

Data set [2] relates to Echinochloa crus-galli var. crus-galli. The experiment in a line: Test Example 3: herbicidal effect by application to foliage (Wagner pot, water depth 0.1-0.5 cm). As to conditions: Nineteenth Table; application to foliage; application herbicide amount 320 g/ha. The source says: (§2) 5 Herbicidal ratio of 90% or more (almost completely withered) 4 Herbicidal ratio of 70% or more and less than 90% 3 Herbicidal ratio of 40% or more and less than 70% 2 Herbicidal ratio of 20% or more and less than 40% 1 Herbicidal ratio of 5% or more and less than 20% 0 Herbicidal ratio of 5% or less (almost no effect) [Test Example 3] Herbicidal Effect Test by Application to Foliage After alluvial soil was placed into 1/10000 are of Wagner pot, water was poured and mixed to form a condition having a water depth of 0.1 cm to 0.5 cm. Seeds of Echinochloa crus-galli var. crus-galli, Leptochloa chinensis, Cyperus difformis, and Oryza sativa were sowed and the pot was placed in the greenhouse of 25° C. to 30° C. to grow the plants. After the plants were grown for 14 days, the emulsion agent containing the compound of the present invention prepared in accordance with Formulation Example 2 was diluted with water so as to be a predetermined herbicide amount and the diluted compound was uniformly applied to a stem and leaf part with a small-size spray. Three weeks after the herbicide application, effects on each plant were investigated in accordance with the criteria of Test Example 1. A: Echinochloa oryzicola Vasing., B: Scirpus juncoides, C: Monochoria vaginalis, D: Leptochloa chinensis, E: Cyperus difformis, F: Digitaria ciliaris, G: Setaria viridis, H: Echinochloa crus-galli var. crus-galli, I: Avena fatua, J: Alopecurus myosuroides, K: Lolium multiflorum Lam., L: Apera spica-venti., M: Abutilon theophrasti, N: Amaranthus retroflexus, O: Chenopodium album, P: Stellaria media, Q: Galium spurium, R: Veronica persica, a: transplanted Oryza sativa, b: directly sowed Oryza sativa, c: Zea mays, d: Glycine max, e: Triticum aestivum, f: Beta vulgaris ssp. vulgaris, and g: Brassica campestris L. The application herbicide amount (g/ha) means an amount that a concentration is adjusted so that, when an application amount is converted into per hectare (1 ha), the herbicide is applied by the number of grams (g) of the described value.

The test system of a further data set is Leptochloa chinensis. The data set is described as above. As to conditions: Nineteenth Table; application to foliage; application herbicide amount 320 g/ha.
From the text: as §2

The test system of the next data set is Cyperus difformis. The description is as above. As to conditions: Nineteenth Table; application to foliage; application herbicide amount 320 g/ha.
From the text: as §2

The subject of another data set is Brassica campestris L. The experiment in a line: Test Example 4: effect on crop by application to foliage (diluvial soil, plastic box). As to conditions: application to foliage, 320 g/ha. The method in brief: (§3)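 Greenhouse plants (25° C. to 30° C., 14 d, diluvial soil) receive a foliar spray of water-diluted emulsifiable formulation at defined g/ha. Grading after 3 weeks uses a six-step herbicidal-ratio scale, with 4 covering 70% to <90% and 1 covering 5% to <20%.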

Data set [3] deals with directly sowed Oryza sativa. Described as above. To be noted: application to foliage, 320 g/ha. The method in brief:
as §3

The next data set has as its system Triticum aestivum. The description is as above. As to conditions: application to foliage, 320 g/ha. The method in brief:
as §3

The test system of a further data set is Zea mays. The data set is described as above. To be noted: application to foliage, 320 g/ha. The method in brief: as §3
The next data set has as its system Glycine max. The data set is described as above. To be noted: application to foliage, 320 g/ha. The method in brief: as §3
Data set [4] relates to Beta vulgaris ssp. vulgaris. The description is as above. To be noted: application to foliage, 320 g/ha. The method in brief: as §3

Turning to `CCOC(=O)Cn1nnnc1NC(=O)c1ccc(C(F)(F)F)n2c(C(C)C)nnc12` [2-092], the “herbicidal effect, Q (Galium spurium)” value in the data set on Galium spurium was 1 (Herbicidal ratio of 5% or more and less than 20%). Also, in the data set with Digitaria ciliaris, the “herbicidal effect, F (Digitaria ciliaris)” value is on record as 0 (Herbicidal ratio of 5% or less (almost no effect)). The “herbicidal effect, G (Setaria viridis)” value in the data set on Setaria viridis is recorded as 0 (Herbicidal ratio of 5% or less (almost no effect)). The “herbicidal effect, H (Echinochloa crus-galli var. crus-galli)” value in data set [1] is 2 (Herbicidal ratio of 20% or more and less than 40%). The “herbicidal effect, R (Veronica persica)” value with Veronica persica was 1 (Herbicidal ratio of 5% or more and less than 20%). Besides, in the data set with Avena fatua, the “herbicidal effect, I (Avena fatua)” value was 1 (Herbicidal ratio of 5% or more and less than 20%). In addition, the “herbicidal effect, M (Abutilon theophrasti)” value in the data set with Abutilon theophrasti was 1 (Herbicidal ratio of 5% or more and less than 20%). Moreover, in the data set with Chenopodium album, the “herbicidal effect, O (Chenopodium album)” value is 3 (Herbicidal ratio of 40% or more and less than 70%). The “herbicidal effect, K (Lolium multiflorum Lam.)” value with Lolium multiflorum Lam. is 0 (Herbicidal ratio of 5% or less (almost no effect)). The “herbicidal effect, J (Alopecurus myosuroides)” value in the data set on Alopecurus myosuroides was 0 (Herbicidal ratio of 5% or less (almost no effect)). In the data set with Amaranthus retroflexus, the “herbicidal effect, N (Amaranthus retroflexus)” value is 1 (Herbicidal ratio of 5% or more and less than 20%). Further, the “herbicidal effect, L (Apera spica-venti.)” value with Apera spica-venti. is reported as 0 (Herbicidal ratio of 5% or less (almost no effect)). Besides, the “herbicidal effect, P (Stellaria media)” value with Stellaria media is 3 (Herbicidal ratio of 40% or more and less than 70%). Further, in data set [2], the “H (herbicidal effect grade)” value was 2 (Herbicidal ratio of 20% or more and less than 40%). In addition, the “D (herbicidal effect grade)” value in the data set on Leptochloa chinensis was 3 (Herbicidal ratio of 40% or more and less than 70%). In addition, the “E (herbicidal effect grade)” value in the data set on Cyperus difformis was 2 (Herbicidal ratio of 20% or more and less than 40%). Moreover, in the data set with Brassica campestris L., the “effect on crop, g (Brassica campestris L.)” value is 0 (Herbicidal ratio of 5% or less (almost no effect)). For the same molecule, the “effect on crop, d (directly sowed Oryza sativa)” value in data set [3] was 1 (Herbicidal ratio of 5% or more and less than 20%). Further, the “effect on crop, e (Triticum aestivum)” value in the data set on Triticum aestivum is 0 (Herbicidal ratio of 5% or less (almost no effect)). For the same molecule, the “effect on crop, b (Zea mays)” value with Zea mays is recorded as 0 (Herbicidal ratio of 5% or less (almost no effect)). In addition, the “effect on crop, c (Glycine max)” value with Glycine max is 0 (Herbicidal ratio of 5% or less (almost no effect)). For the same molecule, the “effect on crop, f (Beta vulgaris ssp. vulgaris)” value in data set [4] was 3 (Herbicidal ratio of 40% or more and less than 70%).

As to `CCn1nc2c(C(=O)Nc3ncnn3C)ccc(C(F)(F)F)n2c1=O` [6-007], the “herbicidal effect, Q (Galium spurium)” value in the data set on Galium spurium is 0 (Herbicidal ratio of 5% or less (almost no effect)). The “herbicidal effect, F (Digitaria ciliaris)” value in the data set with Digitaria ciliaris is given as 0 (Herbicidal ratio of 5% or less (almost no effect)). Also, in the data set on Setaria viridis, the “herbicidal effect, G (Setaria viridis)” value is given as 0 (Herbicidal ratio of 5% or less (almost no effect)). Further, the “herbicidal effect, H (Echinochloa crus-galli var. crus-galli)” value in [1] is 0 (Herbicidal ratio of 5% or less (almost no effect)). For the same molecule, in the data set on Veronica persica, the “herbicidal effect, R (Veronica persica)” value is on record as 0 (Herbicidal ratio of 5% or less (almost no effect)). In the data set with Avena fatua, the “herbicidal effect, I (Avena fatua)” value is listed as 0 (Herbicidal ratio of 5% or less (almost no effect)). The “herbicidal effect, M (Abutilon theophrasti)” value with Abutilon theophrasti is 2 (Herbicidal ratio of 20% or more and less than 40%). Moreover, the “herbicidal effect, O (Chenopodium album)” value in the data set with Chenopodium album is 3 (Herbicidal ratio of 40% or more and less than 70%). Moreover, the “herbicidal effect, K (Lolium multiflorum Lam.)” value in the data set with Lolium multiflorum Lam. is recorded as 0 (Herbicidal ratio of 5% or less (almost no effect)). Also, the “herbicidal effect, J (Alopecurus myosuroides)” value in the data set with Alopecurus myosuroides is 0 (Herbicidal ratio of 5% or less (almost no effect)). Moreover, in the data set on Amaranthus retroflexus, the “herbicidal effect, N (Amaranthus retroflexus)” value is 3 (Herbicidal ratio of 40% or more and less than 70%). In addition, the “herbicidal effect, L (Apera spica-venti.)” value in the data set on Apera spica-venti. was 0 (Herbicidal ratio of 5% or less (almost no effect)). In addition, the “herbicidal effect, P (Stellaria media)” value in the data set with Stellaria media is reported as 0 (Herbicidal ratio of 5% or less (almost no effect)). Moreover, the “effect on crop, g (Brassica campestris L.)” value in the data set with Brassica campestris L. is 0 (Herbicidal ratio of 5% or less (almost no effect)). The “effect on crop, d (directly sowed Oryza sativa)” value in [3] is 2 (Herbicidal ratio of 20% or more and less than 40%). The “effect on crop, e (Triticum aestivum)” value with Triticum aestivum is 0 (Herbicidal ratio of 5% or less (almost no effect)). Further, in the data set on Zea mays, the “effect on crop, b (Zea mays)” value was 0 (Herbicidal ratio of 5% or less (almost no effect)). In the data set on Glycine max, the “effect on crop, c (Glycine max)” value was 0 (Herbicidal ratio of 5% or less (almost no effect)). The “effect on crop, f (Beta vulgaris ssp. vulgaris)” value in data set [4] is 3 (Herbicidal ratio of 40% or more and less than 70%).

Values taken from US9708314B2, “Heterocyclic amide compound” (NISSAN CHEMICAL INDUSTRIES, LTD., priority 2013, dated 2017).
